Assay results: patent publication US7700652B2, “Treating urinary incontinence using prodrugs of GABA analogs” (XenoPort, Inc., priority 2003, dated 2010)

Assay: drug release from the osmotic sustained release dosage form in artificial gastric fluid
Format: physicochemical
Details: sustained release oral osmotic dosage form of Example 1 (700 mg drug composition per bilayer core, one 10 mil passageway)
Description: Next, one 10 mil (0.254 mm) exit passageway is mechanically drilled through the semipermeable wall to connect the drug layer with the exterior of the dosage system. The residual solvent is removed by first drying for 120 hours at 50° C. and 30% relative humidity, then the systems are dried for 2 hours at 50° C. to remove excess moisture. The drug dosage form produced by this process provides: ˜90 wt % 1-{[(α-isobutanoyloxyethoxy)carbonyl]aminomethyl}-1-cyclohexane acetic acid, 4 wt % hydroxypropylmethylcellulose (11,200 molecular weight), 4 wt % polyethylene oxide of 5,000,000 molecular weight and 1 wt % magnesium stearate in the drug layer. The push composition comprises […] polyethylene oxide (7,500,000 molecular weight) 30 wt % sodium chloride, 5 wt % hydroxypropylmethylcellulose (11,200 molecular weight) 1 wt % red ferric oxide, 0.25 wt % magnesium stearate, and 0.075 wt % of butylated hydroxytoluene. The wall comprises 100 wt % cellulose acetate comprising a ˜40% acetyl content. The dosage form has one passageway, 10 mils (0.254 mm), and it has a 1-{[(α-isobutanoyloxyethoxy)carbonyl]aminomethyl}-1-cyclohexane acetic acid release rate of >20 mg/hr and a half life for drug release of >8 hours in artificial gastric fluid.

## CC(OC(=O)NCC1(CC(=O)O)CCCCC1)OC(=O)C(C)C (stereo not drawn) [1-{[(α-isobutanoyloxyethoxy)carbonyl]aminomethyl}-1-cyclohexane acetic acid]
  release rate: > 20 mg/h
